Data from patent US9963444B2, “N-acylethanolamine hydrolyzing acid amidase (NAAA) inhibitors and their use thereof” (Northeastern University, priority 2014, dated 2018).
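Note: compound preincubated 15 min at room temperature with hNAAA, then PAMCA added at 5 µM, reacted 120 min at 37 °C, AMC release read by fluorescence (ex 360, em 460 nm).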

These molecules were tested against hNAAA (Homo sapiens (Human), UniProt Q02083) (assay: Fluorescence-based NAAA inhibition assay with fluorogenic substrate PAMCA). Settings: not given.
Sequence of hNAAA (Q02083 29-125): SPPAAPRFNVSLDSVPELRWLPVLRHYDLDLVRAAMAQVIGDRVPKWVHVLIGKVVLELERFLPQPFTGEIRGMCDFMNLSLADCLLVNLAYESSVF
Sequence of hNAAA (Q02083 126-359): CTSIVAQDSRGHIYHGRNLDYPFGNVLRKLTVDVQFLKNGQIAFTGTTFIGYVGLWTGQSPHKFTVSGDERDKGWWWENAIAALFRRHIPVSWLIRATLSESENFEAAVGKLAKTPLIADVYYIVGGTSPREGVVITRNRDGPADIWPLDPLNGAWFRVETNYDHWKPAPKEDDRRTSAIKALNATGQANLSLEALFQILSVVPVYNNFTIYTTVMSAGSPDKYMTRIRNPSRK
Work on `S=C=NCCCCCCCCCCc1ccccn1` [Example 18, 2-(10-Isothiocyanatodecyl)pyridine] yielded an IC50 of 0.01 to 0.1 µM.
For `S=C=NCCCCCCCCCCc1ccncc1` [Example 19, 4-(10-Isothiocyanatodecyl)pyridine], the IC50 was 0.01 to 0.1 µM.
`S=C=NCCCCCCCCCCc1ncccn1` [Example 20, 2-(10-Isothiocyanatodecyl)pyrimidine] was tested, and the IC50 was 0.01 to 0.1 µM.
Work on `S=C=NCCCCCCCCCCCc1ccccc1` [Example 21, (11-Isothiocyanatoundecyl)benzene] yielded an IC50 of 0.01 to 0.1 µM.
For `S=C=NCCCCCCCCCc1ccccc1` [Example 22, (9-Isothiocyanatononyl)benzene], the IC50 was 0.01 to 0.1 µM.
For `S=C=NCCOCCOCCOCc1ccccc1` [Example 23, ((2-(2-(2-Isothiocyanatoethoxy)ethoxy)ethoxy)methyl)benzene], the IC50 was 0.01 to 0.1 µM.
In the case of `S=C=NCCCOCc1cccc(-c2ccccc2)c1` [Example 24, 3-((3-Isothiocyanatopropoxy)methyl)-1,1′-biphenyl], the IC50 is reported as 0.01 to 0.1 µM.
`S=C=NCCCOCc1ccc(-c2ccccc2)cc1` [Example 25, 4-((3-Isothiocyanatopropoxy)methyl)-1,1′-biphenyl] showed an IC50 of 0.01 to 0.1 µM.
For `S=C=NCCCOCc1ccc(Oc2ccccc2)cc1` [Example 26, 1((3-Isothiocyanatopropoxy)methyl)-4-phenoxybenzene], the IC50 was 0.01 to 0.1 µM.
`S=C=NCCCCCN1CCC(Cc2ccccc2)CC1` [Example 27, 4-Benzyl-1-(5-isothiocyanatopentyl)piperidine] showed an IC50 of 0.01 to 0.1 µM.
Work on `Cc1ccc(-c2ccc(CO[C@H]3C[C@H](N=C=S)C3)cc2)cc1` [Example 28, 4-(((1R,3R)-3-Isothiocyanatocyclobutoxy)methyl)-4′-methyl-1,1′-biphenyl] yielded an IC50 of 0.11 to 1 µM.
In the case of `Cc1ccc(-c2ccc(CO[C@H]3C[C@@H](N=C=S)C3)cc2)cc1` [Example 29, 4-(((1S,3S)-3-Isothiocyanatocyclobutoxy)methyl)-4′-methyl-1,1′-biphenyl], the IC50 is reported as 0.01 to 0.1 µM.
`S=C=N[C@H]1C[C@@H](OCc2ccc(-c3ccccc3)cc2)C1` [Example 31, 4-(((1S,3S)-3-isothiocyanatocyclobutoxy)methyl)-1,1′-biphenyl] gave an IC50 of 0.11 to 1 µM.
Work on `Fc1ccc(-c2ccc(CO[C@H]3C[C@@H](N=C=S)C3)c(F)c2)cc1` [Example 32, 3,4′-Difluoro-4-(((1S,3S)-3-isothiocyanatocyclobutoxy)methyl)-1,1′-biphenyl] yielded an IC50 of 0.11 to 1 µM.
`COc1ccc(-c2ccc(CO[C@H]3C[C@@H](N=C=S)C3)c(F)c2)cc1F` [Example 33, 3,3′-Difluoro-4-(((1S,3S)-3-isothiocyanatocyclobutoxy)methyl)-4′-methoxy-1,1′-biphenyl] was tested, and the IC50 was 0.01 to 0.1 µM.
With `COc1cccc(-c2ccc(CO[C@H]3C[C@@H](N=C=S)C3)cc2)c1` [Example 35, 4′-(((1S,3S)-3-isothiocyanatocyclobutoxy)methyl)-3-methoxy-1,1′-biphenyl] the IC50 was 0.01 to 0.1 µM.
`CCOc1ccc(-c2ccc(CO[C@H]3C[C@@H](N=C=S)C3)c(F)c2)cc1F` [Example 36, 4-Ethoxy-3,3′-difluoro-4′-(((1S,3S)-3-isothiocyanatocyclobutoxy)methyl)-1,1′-biphenyl] gave an IC50 of 0.01 to 0.1 µM.
Work on `CC(C)Oc1ccc(-c2ccc(CO[C@H]3C[C@@H](N=C=S)C3)c(F)c2)cc1F` [Example 37, 3,3′-Difluoro-4-isopropoxy-4′-(((1S,3S)-3-isothiocyanatocyclobutoxy)methyl)-1,1′-biphenyl] yielded an IC50 of 0.11 to 1 µM.
In the case of `Fc1cc(-c2ccc3c(c2)OCCO3)ccc1CO[C@H]1C[C@@H](N=C=S)C1` [Example 38, 6-(3-Fluoro-4-(((1S,3S)-3-isothiocyanatocyclobutoxy)methyl)phenyl)-2,3-dihydrobenzo[b][1,4]dioxine], the IC50 is reported as 0.01 to 0.1 µM.
`Fc1cc(-c2ccc3c(c2)OCO3)ccc1CO[C@H]1C[C@@H](N=C=S)C1` [Example 39, 5-(3-Fluoro-4-(((1S,3S)-3-isothiocyanatocyclobutoxy)methyl)phenyl)benzo[d][1,3]dioxole] showed an IC50 of 0.01 to 0.1 µM.
`COc1ccc(-c2ccc(CO[C@H]3C[C@@H](N=C=S)C3)c(F)c2)cc1OC` [Example 40, 3-Fluoro-4-(((1S,3S)-3-isothiocyanatocyclobutoxy)methyl)-3′,4′-dimethoxy-1,1′-biphenyl] gave an IC50 of 0.01 to 0.1 µM.
With `S=C=N[C@H]1C[C@@H](OCc2ccc(Oc3ccccc3)cc2Br)C1` [Example 49, 2-Bromo-1-(((1S,3S)-3-isothiocyanatocyclobutoxy)methyl)-4-phenoxybenzene] the IC50 was 0.11 to 1 µM.
Work on `COc1ccc(-c2ccc(O[C@H]3C[C@H](N=C=S)C3)cc2)cc1F` [Example 51, 3-Fluoro-4′-((1R,3R)-3-isothiocyanatocyclobutoxy)-4-methoxy-1,1′-biphenyl] yielded an IC50 of 0.01 to 0.1 µM.
`COc1ccc(-c2ccc(O[C@H]3C[C@@H](N=C=S)C3)cc2)cc1F` [Example 52, 3-Fluoro-4′-((1S,3S)-3-isothiocyanatocyclobutoxy)-4-methoxy-1,1′-biphenyl] was tested, and the IC50 was 0.01 to 0.1 µM.

Same assay, conditions: read-out: NAAA Inhibition IC50 μM; purified hNAAA, PAMCA 5 μM, pH 4.5
`S=C=NCCCCc1ccccc1` [Example 1, (4-isothiocyanatobutyl)benzene] was tested, and the IC50 was > 1 µM.
For `S=C=NCCCCCc1ccccc1` [Example 2, (5-Isothiocyanatopentyl)benzene], the IC50 was > 1 µM.
With `S=C=NCCCCCCCCc1ccccc1` [Example 3, (8-Isothiocyanatooctyl)benzene] the IC50 was > 1 µM.
In the case of `S=C=NCCCCCCCc1ccc2ccccc2c1` [Example 5, 2-(7-Isothiocyanatoheptyl)naphthalene], the IC50 is reported as > 1 µM.
With `CCCCCCCCCCCCCCCC(=O)NCCN=C=S` [Example 6, N-(2-isothiocyanatoethyl)palmitamide] the IC50 was > 1 µM.
`O=C(CCCCCCc1ccc2ccccc2c1)NCCN=C=S` [Example 7, N-(2-Isothiocyanatoethyl)-7-(naphthalene-2-yl)heptanamide] was tested, and the IC50 was > 1 µM.
With `S=C=Nc1ccc(Cc2ccncc2)cc1` [Example 8, 4-(4-Isothiocyanatobenzyl)pyridine] the IC50 was > 1 µM.
`S=C=NCCN1CCN(Cc2ccccc2)CC1` [Example 9, 1-Isothiocyanato-2-(4-benzylpiperazino)ethane] was tested, and the IC50 was > 1 µM.
With `S=C=NCc1ccc(N2CCOCC2)cc1` [Example 10, 4-(4-(Isothiocyanatomethyl)phenyl)morpholine] the IC50 was > 1 µM.
In the case of `S=C=NCCN1CCC(Cc2ccccc2)CC1` [Example 11, 4-Benzyl-1-(2-isothiocyanatoethyl)piperidine], the IC50 is reported as > 1 µM.
With `S=C=NCc1ccc(CN2CCOCC2)cc1` [Example 12, 4-(Morpholinomethyl)benzylisothiocyanate] the IC50 was > 1 µM.
`O=C(OCc1ccccc1)N1CCC(CN=C=S)CC1` [Example 13, Benzyl 4-(isothiocyanatomethyl)tetrahydro-1(2H)-pyridinecarboxylate] was tested, and the IC50 was > 1 µM.
`Cc1cncc(Oc2ccc(CN=C=S)cc2)n1` [Example 14, 2-(4-(Isothiocyanatomethyl)phenoxy)-6-methylpyrazine] was tested, and the IC50 was > 1 µM.
For `S=C=NCc1ccc(COc2ccccc2)cc1` [Example 15, 1-(Isothiocyanatomethyl)-4-(phenoxymethyl)benzene], the IC50 was > 1 µM.
`FC(F)(F)c1ccccc1CCCCCCCCCCN=C=S` [Example 16, 1-(10-Isothiocyanatodecyl)-2-(trifluoromethyl)benzene] was tested, and the IC50 was > 1 µM.
For `COc1ccc(CCCCCCCCCCN=C=S)cc1` [Example 17, 1-(10-Isothiocyanatodecyl)-4-methoxybenzene], the IC50 was > 1 µM.
For `S=C=N[C@H]1C[C@H](OCc2ccc(-c3ccccc3)cc2)C1` [Example 30, 4-(((1R,3R)-3-isothiocyanatocyclobutoxy)methyl)-1,1′-biphenyl], the IC50 was > 1 µM.
For `COc1cccc(-c2ccc(CO[C@H]3C[C@H](N=C=S)C3)cc2)c1` [Example 34, 4′-(((1R,3R)-3-isothiocyanatocyclobutoxy)methyl)-3-methoxy-1,1′-biphenyl], the IC50 was > 1 µM.
Molecule `COc1ncccc1-c1ccc(COC2CC(N=C=S)C2)c(F)c1` [Example 41, 3-(3-Fluoro-4-(((1R,3R)-3-isothiocyanatocyclobutoxy)methyl)phenyl)-2-methoxypyridine] has an IC50 of 0.11 to 1 µM.
`COc1ccc(-c2ccc(COC3CC(N=C=S)C3)nc2)cc1F` [Example 42, 5-(3-Fluoro-4-methoxyphenyl)-2-(((1R,3R)-3-isothiocyanatocyclobutoxy)methyl)pyridine] gave an IC50 of 0.01 to 0.1 µM.
`COc1ccc(-c2ccc(F)c(CO[C@H]3C[C@@H](N=C=S)C3)c2)cc1F` [Example 43, 3,4′-Difluoro-3′-(((1S,3S)-3-isothiocyanatocyclobutoxy)methyl)-4-methoxy-1,1′-biphenyl] was tested, and the IC50 was > 1 µM.
`Fc1cc(Br)ccc1COC1CC(N=C=S)C1` [Example 44, 4-Bromo-2-fluoro-1-(((1R,3R)-3-isothiocyanatocyclobutoxy)methyl)benzene] showed an IC50 of 0.11 to 1 µM.
`Cc1noc(C)c1-c1ccc(COC2CC(N=C=S)C2)c(F)c1` [Example 45, 4-(3-Fluoro-4-(((1R,3R)-3-isothiocyanatocyclobutoxy)methyl)phenyl)-3,5-dimethylisoxazole] was tested, and the IC50 was > 1 µM.
`Cn1cc(-c2ccc(COC3CC(N=C=S)C3)c(F)c2)cn1` [Example 46, 4-(3-Fluoro-4-(((1R,3R)-3-isothiocyanatocyclobutoxy)methyl)phenyl)-1-methyl-1H-pyrazole] gave an IC50 of 0.11 to 1 µM.
With `Fc1cc(-c2cccc(C(F)(F)F)c2)ccc1COC1CC(N=C=S)C1` [Example 47, 3-Fluoro-4-(((1R,3R)-3-isothiocyanatocyclobutoxy)methyl)-3′-(trifluoromethyl)-1,1′-biphenyl] the IC50 was 0.01 to 0.1 µM.
`Fc1cc(-c2cccc(OCc3ccccc3)c2)ccc1COC1CC(N=C=S)C1` [Example 48, 3′-(Benzyloxy)-3-fluoro-4-(((1R,3R)-3-isothiocyanatocyclobutoxy)methyl)-1,1′-biphenyl] showed an IC50 of 0.01 to 0.1 µM.
For `S=C=N[C@H]1C[C@@H](OCc2ccc(Oc3ccccc3)cc2-c2ccccc2)C1` [Example 50, 2-(((1S,3S)-3-Isothiocyanatocyclobutoxy)methyl)-5-phenoxy-1,1′-biphenyl], the IC50 was > 1 µM.
For `CN(Cc1ccc(-c2ccccc2)cc1)C1CC(N=C=S)C1` [Example 53, (1R,3R)—N-([1,1′-Biphenyl]-4-ylmethyl)-3-isothiocyanato-N-methylcyclobutan-1-amine], the IC50 was > 1 µM.
